Read-outs that look alike come from different tables or passages of the source.
Tests used:
Assay type in all cases: cell-based
[1] = system: WiDr cells (colon cancer cells; wildtype SF3B1); experiment: Cell viability assay (CellTiter-Glo, 72 hr), WiDr cells; conditions: Homo sapiens
Protocol: (§1) Cells (WiDr and Panc05.04 obtained from ATCC) were seeded in 96-well plates, with 2000 cells/100 μL/well, and incubated overnight. Spent media was removed, and fresh media containing 9 different concentrations of compound (100 μL/well) were added, with DMSO concentration from compound stock solution adjusted to be 0.1%. Each compound treatment was done in duplicate or triplicate at each concentration.
(§2) Another plate with cells seeded was dedicated as a time zero (Tz) plate, to which was added 0.1% DMSO in media (100 μL/well) followed by CellTiter-Glo® reagent (Promega Corporation, Madison, Wisconsin) (50 μL/well) for ATP measurement as a surrogate of cell viability. Average value from measurement of multiple wells of this plate is used as Tz. Compound-treated plates were incubated for 72 hr at 37° C. Then, CellTiter-Glo® reagent (50 μL/well) was added and ATP was measured. Average value from measurement of the duplicate or triplicate compound-treated wells is used as Ti, and seeded plates with medium having 0.1% DMSO without compound is used as control growth (C).
(§3) Percentage growth inhibition/Percentage viability was calculated as:
(§4) [(Ti−Tz)/(C−Tz)]×100 for concentrations for which Ti>/=Tz
(§5) [(Ti−Tz)/Tz]×100 for concentrations for which Ti<Tz.
(§6) *time zero (Tz), control growth (C), and test growth in the presence of compound (Ti) Percentage growth inhibition/Percentage viability are plotted versus compound concentration to determine Emax.
Emax refers to the maximum achievable response to a compound in a tested dose range, with a negative value indicating cellular lethality. A larger negative Emax value indicates greater cellular lethality for a particular compound. […]

[2] = system: WiDr-R cells (colon cancer cells; chemically-induced SF3B1 R1074H mutant); experiment: Cell viability assay (CellTiter-Glo, 72 hr), resistant WiDr-R cells (counter-screen)
Protocol: as §1, §2, §3, §4, §5, §6
(§7) Emax refers to the maximum achievable response to a compound in a tested dose range, with a negative value indicating cellular lethality. A larger negative Emax value indicates greater cellular lethality for a particular compound.
The counter-screening of compounds in this viability assay with a “resistant” WiDr-R cell line may indicate whether these compounds have off-target effect(s).

[3] = system: Panc 05.04 cells (pancreatic cancer cells; Q699H and K700E mutations in SF3B1); experiment: Cell viability assay (CellTiter-Glo, 72 hr), Panc 05.04 cells; conditions: Panc 05.04 cells (mutant SF3B1); for Emax: maximum achievable response in tested dose range, negative value = cellular lethality, read-out: Panc 05.04 (mt SF3B1 cells) Emax (%); for GI50: read-out: Panc 05.04 (mt SF3B1 cells), GI50
Protocol: as §1, §2, §3, §4, §5, §6, §7

[4] = WiDr cells (wildtype SF3B1), read-out: WiDr GI50
[5] = WiDr-R cells (SF3B1 R1074H mutation, resistant), read-out: WiDr-R GI50

| Structure (SMILES) | GI50 [1, 4] [nM] | GI50 [2, 5] [nM] | Emax [3] [%] | GI50 [3] [nM] | GI50 ([1]; WiDr, read-out: WiDr GI50 (nM)) [nM] | GI50 ([2]; read-out: WiDr-R GI50 (nM)) [nM] |
| --- | --- | --- | --- | --- | --- | --- |
| C/C(=C\C=C\[C@@H](C)COC(=O)n1ccc2ccccc21)[C@H]1OC(=O)C[C@H](O)CC[C@@](C)(O)[C@@H](OC(=O)N2CCN(C)CC2)/C=C/[C@@H]1C | 36.6 | > 1000 | -92.8 | 30.5 | – | – |
| CC(=O)O[C@H]1/C=C/[C@H](C)[C@@H](/C(C)=C/C=C/[C@@H](C)COC(N)=O)OC(=O)C[C@H](O)CC[C@@]1(C)O | 8130 | > 10000 | 40.1 | 2090 | – | – |
| COc1cccc(C(C)/C=C/C=C(\C)[C@H]2OC(=O)C[C@H](O)CC[C@@](C)(O)[C@@H](OC(C)=O)/C=C/[C@@H]2C)n1 (some centres unmarked) | 282 | > 10000 | -12.7 | 554 | – | – |
| C/C(=C\C=C\C1(COC(=O)N2CCCC2)CC1)[C@H]1OC(=O)C[C@H](O)CC[C@@](C)(O)[C@@H](OC(=O)N2CCN(C3CCCCCC3)CC2)/C=C/[C@@H]1C | 138 | > 1000 | -24.7 | 302 | – | – |
| CCCN(C)C(=O)OC[C@H](C)/C=C/C=C(\C)[C@H]1OC(=O)C[C@H](O)CC[C@@](C)(O)[C@@H](OC(=O)N2CCN(C3CCCCCC3)CC2)/C=C/[C@@H]1C | – | – | -92.4 | 279 | 43.4 | > 1000 |
| CC(=O)O[C@H]1/C=C/[C@H](C)[C@@H](/C(C)=C/C=C/[C@@H](C)COC(=O)N2CCSC2)OC(=O)C[C@H](O)CC[C@@]1(C)O | 62.9 | > 1000 | – | 68 | – | – |
| C/C(=C\C=C\[C@@H](C)COC(=O)N1CCC[C@H]1CF)[C@H]1OC(=O)C[C@H](O)CC[C@H](C)[C@@H](OC(=O)N2CCN(C3CCCCCC3)CC2)/C=C/[C@@H]1C | 5.05 | > 1000 | -77.7 | 6.76 | – | – |
| COCCN(C)C(=O)OC[C@H](C)/C=C/C=C(\C)[C@H]1OC(=O)C[C@H](O)CC[C@@](C)(O)[C@@H](OC(C)=O)/C=C/[C@@H]1C | 247 | > 1000 | -96.8 | 64.3 | – | – |
| C/C(=C\C=C\C(C)c1ccnc(N2CCCC2)n1)[C@H]1OC(=O)CCCCC[C@@H](OC(=O)N2CCN(C3CCCCCC3)CC2)/C=C/[C@@H]1C (some centres unmarked) | 810 | 4080 | 52 | > 10000 | – | – |
| C/C(=C\C=C\[C@@H](C)c1ccccn1)[C@H]1OC(=O)CCCC[C@@](C)(O)[C@@H](OC(=O)N2CCN(C)CC2)/C=C/[C@@H]1C | 31.6 | > 1000 | -75.7 | 33.9 | – | – |
| C/C(=C\C=C\[C@@H](C)COC(=O)N1CC2CC2C1)[C@H]1OC(=O)C[C@H](O)CC[C@@](C)(O)[C@@H](OC(=O)N2CCN(C3CCCCCC3)CC2)/C=C/[C@@H]1C (some centres unmarked) | 8.28 | > 1000 | -84.2 | 18.6 | – | – |
| C/C(=C\C=C\C(C)c1ccnc(N(C)C)n1)[C@H]1OC(=O)CCCCC[C@@H](OC(=O)N2CCN(C3CCCCCC3)CC2)/C=C/[C@@H]1C (some centres unmarked) | 4280 | > 10000 | 52 | > 10000 | – | – |
| C/C(=C\C=C\C(C)(C)COC(=O)N1CCCC1)[C@H]1OC(=O)C[C@H](OC(=O)N2CCCC2)CC[C@@](C)(O)[C@@H](OC(=O)N2CCN(C3CCCCCC3)CC2)/C=C/[C@@H]1C | 41.4 | 1880 | -92.4 | 86.3 | – | – |
| C/C(=C\C=C\C(C)c1ccnc(N(C)C)n1)[C@H]1OC(=O)C[C@H](O)CC[C@@](C)(O)[C@@H](OC(=O)N2CCN(C)CC2)/C=C/[C@@H]1C (some centres unmarked) | 252 | > 1000 | 6.97 | 1290 | – | – |
| C/C(=C\C=C\[C@@H](C)c1ccccn1)[C@H]1OC(=O)C[C@H](O)CC[C@@](C)(O)[C@@H](OC(=O)N2CC3CCC(C2)N3C2CCCCCC2)/C=C/[C@@H]1C | 52 | > 1000 | -95.7 | 65 | – | – |
| C/C(=C\C=C\[C@@H](C)COC(=O)N1CC[C@@H](Oc2nnnn2-c2ccccc2)C1)[C@H]1OC(=O)CCCC[C@@](C)(O)[C@@H](OC(=O)N2CCN(C)CC2)/C=C/[C@@H]1C | 31.6 | > 1000 | -94.9 | 37.3 | – | – |
| C/C(=C\C=C\[C@@H](C)COC(=O)N1CCCC1C(C)O)[C@H]1OC(=O)C[C@H](O)CC[C@@](C)(O)[C@@H](OC(=O)N2CCN(C)CC2)/C=C/[C@@H]1C (some centres unmarked) | 14.7 | > 1000 | -85.4 | 10.1 | – | – |
| CC(=O)O[C@H]1/C=C/[C@H](C)[C@@H](/C(C)=C/C=C/Cc2ccncc2)OC(=O)C[C@H](O)CC[C@@]1(C)O | 610 | > 10000 | 76.5 | > 6400 | – | – |
| C/C(=C\C=C\[C@@H](C)COC(=O)N1CC[C@@H](O)C1)[C@H]1OC(=O)C[C@H](O)CC[C@@](C)(O)[C@@H](OC(=O)N2CCN(C)CC2)/C=C/[C@@H]1C | 89.9 | > 1000 | -94.8 | 88.1 | – | – |
| C/C(=C\C=C\[C@@H](C)COC(=O)N1CCC(=O)C1)[C@H]1OC(=O)C[C@H](O)CC[C@@](C)(O)[C@@H](OC(=O)N2CCN(C3CCCCCC3)CC2)/C=C/[C@@H]1C | 4.77 | 449 | -93.6 | 2.85 | – | – |
| C/C(=C\C=C\C(C)c1ncccn1)[C@H]1OC(=O)CCCCC[C@@H](OC(=O)N2CCN(C)CC2)/C=C/[C@@H]1C (some centres unmarked) | 45.7 | > 1000 | -72.6 | 40.4 | – | – |
| C/C(=C\C=C\[C@@H](C)COC(=O)N1CCCC1)[C@H]1OC(=O)CCCCC[C@@H](OC(=O)N2CCN(C3CCCCCC3)CC2)/C=C/[C@@H]1C | 74.6 | 929 | -93.3 | 170 | – | – |
| C/C(=C\C=C\[C@@H](C)COC(=O)N1CC[C@@H](F)C1)[C@H]1OC(=O)C[C@H](O)CC[C@@](C)(O)[C@@H](OC(=O)N2CCN(C3CCCCCC3)CC2)/C=C/[C@@H]1C | 7.64 | > 1000 | -92.2 | 22.5 | – | – |
| C/C(=C\C=C\[C@@H](C)COC(=O)N1CC[C@@H](NC(=O)OC(C)(C)C)C1)[C@H]1OC(=O)C[C@H](O)CC[C@@](C)(O)[C@@H](OC(=O)N2CCN(C3CCCCCC3)CC2)/C=C/[C@@H]1C | 28 | > 1000 | -59.6 | 59.4 | – | – |
| C/C(=C\C=C\[C@@H](C)COC(=O)N1CCCC1(C)C)[C@H]1OC(=O)C[C@H](O)CC[C@@](C)(O)[C@@H](OC(=O)N2CCN(C3CCCCCC3)CC2)/C=C/[C@@H]1C | 28.9 | > 1000 | -93 | 10.4 | – | – |
| CC(=O)O[C@H]1/C=C/[C@H](C)[C@@H](/C(C)=C/C=C/C(C)CCc2ccccn2)OC(=O)C[C@H](O)CC[C@@]1(C)O (some centres unmarked) | 593 | > 10000 | 0.954 | 972 | – | – |
| C/C(=C\C=C\C(C)c1ccnc(N2CC[C@@H](O)C2)n1)[C@H]1OC(=O)CCCCC[C@@H](OC(=O)N2CCN(C3CCCCCC3)CC2)/C=C/[C@@H]1C (some centres unmarked) | 455 | > 10000 | -94.8 | 475 | – | – |

Reference: US11926619B2, “Certain pladienolide compounds and methods of use” (EISAI R&D MANAGEMENT CO., LTD., priority 2018, dated 2024)
